Data on five molecules can be found in publication PMC8760490, “Discovery of novel furanylbenzamide inhibitors that target oncogenic tyrosine phosphatase SHP2 in leukemia cells” (The Journal of Biological Chemistry, 2021).

This test addresses T1, SHP2 catalytic domain (SHP2cat; residues 248–527) (Homo sapiens, UniProt Q06124).
T1 construct: the SHP2 catalytic domain (SHP2cat; residues 248–527); made in house
T1 sequence (Q06124 248-527): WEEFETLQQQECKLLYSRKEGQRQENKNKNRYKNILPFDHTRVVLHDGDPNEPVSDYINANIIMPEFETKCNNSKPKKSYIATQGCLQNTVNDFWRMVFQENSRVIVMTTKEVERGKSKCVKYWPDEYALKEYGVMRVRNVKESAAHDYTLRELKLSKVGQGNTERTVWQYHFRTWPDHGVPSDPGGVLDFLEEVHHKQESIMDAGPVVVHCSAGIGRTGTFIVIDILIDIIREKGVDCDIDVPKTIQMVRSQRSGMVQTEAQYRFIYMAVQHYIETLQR
The test is described as follows: DiFMUP fluorescence phosphatase inhibition assay, SHP2cat. In kind it is biochemical. The text has this:
To test the synthesized compounds for their potential to inhibit SHP2 activity, a fluorescence intensity-based assay using 6,8-difluoro-4-methylumbelliferyl phosphate (DiFMUP) as the substrate was adapted for three recombinant SHP2 constructs: (1) the SHP2 catalytic domain (SHP2cat; residues 248–527), (2) the full-length SHP2-E76K oncogenic mutant, and (3) the full-length SHP2 WT (SHP2-WT). The recombinant SHP2 proteins were expressed and purified as described previously ([36]). A dually phosphorylated peptide derived from the insulin receptor substrate 1 (IRS-1) served as a surrogate binding protein and was used to activate SHP2-WT ([30], [36]). […] Michaelis–Menten experiments to determine the DiFMUP Michaelis–Menten constant (Km) for each SHP2 construct were performed as described previously ([36]) and yielded the following values: SHP2-WT, Km = 60 μM; SHP2-E76K, Km = 20 μM; and SHP2cat, Km = 20 μM. Relative maximum rates (Vmax) of the DiFMUP reactions expressed as relative fluorescence units per minute (RFU/min) were as follows: SHP2-WT, Vmax = 871 RFU/min; SHP2-E76K, Vmax = 2730 RFU/min; and SHP2cat, Vmax = 2912 RFU/min. IC50 values for each compound were determined from initial rates in 10-point dose–response assays using DiFMUP at a concentration corresponding to its Km value for the respective SHP2 construct. […] Replacements for the benzothiophenone were explored using analog #10.
Recombinant human full-length SHP2 (1–594) WT and E76K mutants, as well as the SHP2cat (248–527), were expressed and purified as described before ([36], [41]). Recombinant human PTP1B (1–300) and the codon-optimized STEP (280–566) catalytic domains were cloned into PET-15b and expressed as N-His-tagged fusion proteins. For expression, transformed BL21(DE3) cells were grown and induced similar as described for SHP2. Collected cells were resuspended in lysis buffer (25 mM Tris, pH 7.5, 300 mM NaCl, 50 mM imidazole, and 10% glycerol) with 100 mg/l RNaseA and were lysed with two passages using a microfluidizer. The lysate was clarified by centrifugation at 15,000g for 50 min and applied to nickel–nitrilotriacetic acid resin. The column resin was washed, and the PTP1B or STEP protein was eluted in lysis buffer at 300 mM imidazole. The PTP1B or STEP protein was further purified by S75 size-exclusion chromatography in 50 mM Tris, pH 7.5, 50 mM NaCl. The eluted peak fractions were supplemented with tris(2-carboxyethyl)phosphine to 10 mM, concentrated by ultrafiltration, and stored at −80 °C. The purified yield of PTP1B was 33 mg/l cell culture; the yield of STEP was 16 mg/l cell culture.
SHP2 inhibitors were tested at RT in a 384-well plate format standard phosphatase fluorescence intensity assay using DiFMUP (Invitrogen/Thermo Fisher Scientific) as a substrate and a total reaction volume of 25 μl. SHP2 inhibitors or vehicle (DMSO) were spotted in triplicate into a black Greiner FLUOTRAC 200 384-well microplate (catalog no.: 781076; Greiner) for a 10-point dose–response assay using an Echo 555 Liquid Handler (Labcyte, Inc). PTP working solutions were prepared at a 0.625 nM concentration (for a final concentration of 0.5 nM) in buffer containing 50 mM Bis–Tris, pH 6.0, 50 mM NaCl, 5 mM DTT, and 0.01% Tween-20. Prior to the assay, a dually phosphorylated IRS-1 peptide (625 nM [500 nM final] ([30])) was added to full-length WT SHP2 working solutions and incubated for 20 min. DiFMUP working solutions at 5× final concentration were prepared in 50 mM Bis–Tris, pH 6.0, 50 mM NaCl, and 0.01% Tween-20. About 20 μl of PTP working solution was dispensed into the microplate and incubated with inhibitor for 20 min at RT. […] The reaction was initiated by addition of 5 μl DiFMUP working solutions. Fluorescence intensity was measured in kinetic mode (every minute for 7 or 10 min) using a Tecan Spark Multimode Microplate Reader (Tecan) with an excitation wavelength of 360 nm and an emission wavelength of 460 nm. […]

Where [1] appears, read: DiFMUP at Km (20 μM), pH 6.0, read-out: SHP2cat, IC50.
The mark [2] stands for this setting: catalytic domain, DiFMUP at Km, read-out: SHP2 IC50 (Table 2).

Where two headings read alike, the source gives them in different places.

In the case of `O=C1CCCC1=Cc1ccc(-c2ccc(O)c(C(=O)Nc3ccccc3)c2)o1` [SBI-3192, 2-Hydroxy-5-(5-((2-oxocyclopentylidene)methyl)furan-2-yl)-N-phenylbenzamide], the IC50 reads like this: under setting [1], 1.1 µM; under setting [2], 1.1 µM.

For the molecule `O=C(Nc1ccccc1)c1cc(-c2ccc(/C=C3\Sc4ccccc4C3=O)o2)ccc1O` [SBI-4668, (Z)-2-Hydroxy-5-(5-((3-oxobenzo[b]thiophen-2(3H)-ylidene)methyl)furan-2-yl)-N-phenylbenzamide], the IC50 amounted to 0.73 µM under setting [1] and 0.73 µM under setting [2].

For the molecule `N#Cc1cc(-c2ccc(/C=C3\Sc4ccccc4C3=O)o2)ccc1O` [SBI-3404, (Z)-2-Hydroxy-5-(5-((3-oxobenzo[b]thiophen-2(3H)-ylidene)methyl)furan-2-yl)benzonitrile], the IC50 was determined as 1.4 µM under setting [1] and 1.4 µM under setting [2].

As for `O=C1/C(=C/c2ccc(-c3ccc(O)c(-c4nn[nH]n4)c3)o2)Sc2ccccc21` [SBI-3405, (Z)-2-((5-(4-Hydroxy-3-(2H-tetrazol-5-yl)phenyl)furan-2-yl)methylene)benzo[b]thiophen-3(2H)-one], the IC50 reads like this: under setting [1], 2 µM; under setting [2], 2 µM.

On to `Nc1ccc(NC(=O)c2cc(-c3ccc(/C=C4\Sc5ccccc5C4=O)o3)ccc2O)cc1` [SBI-2130, (Z)-N-(4-Aminophenyl)-2-hydroxy-5-(5-((3-oxobenzo[b]thiophen-2(3H)-ylidene)methyl)furan-2-yl)benzamide], for which the IC50 was found to be 0.22 µM under setting [1] and 0.22 µM under setting [2].
